Reference: patent US10821115B2, “Compounds that inhibit Mcl-1 protein” (priority 2017, dated 2020)
Read-outs that look alike come from different tables or passages of the source.

What was measured:
[1] = biological target: recombinant human Mcl-1 (residues 171-327) / Bim interaction (Homo sapiens (Human), UniProt Q07820); experiment: biochemical; type: binding; conditions: read-out: Mcl-1 HTRF IC50
[2] = tested on: human multiple myeloma cell line, OPM-2; experiment: Cell viability assay (OPM-2 10 FBS), CellTiter-Glo; type: cell-based
Summary of the method: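 3000 cells/well, RPMI 1640 + 10% FBS; serial compound dilutions, 16 h, 37 °C/5% CO2.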

[3] = 0.1 nM Mcl-1(171-327), 0.05 nM biotin-Bim (51-76)
[4] = TR-FRET, Mcl-1(171-327) / biotin-Bim (51-76)
[5] = Homo sapiens, OPM-2, 16 h, read-out: OPM-2 10% FBS IC50 IP, OPM-2 cells, 10% FBS, 16 h, CellTiter-Glo

Sequence of recombinant human Mcl-1 (residues 171-327) / Bim interaction (Q07820 171-327): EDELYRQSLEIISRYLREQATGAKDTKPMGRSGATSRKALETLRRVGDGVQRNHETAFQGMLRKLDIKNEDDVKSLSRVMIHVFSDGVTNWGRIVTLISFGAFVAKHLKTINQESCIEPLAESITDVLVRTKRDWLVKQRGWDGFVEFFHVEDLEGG

| Structure (SMILES) | IC50 [1, 4] | IC50 [2, 5] | other results |
| --- | --- | --- | --- |
| CO[C@@]1(CN2CCN3C[C@H](C)OC[C@@H]3C2)/C=C/C[C@H](C)[C@@H](C)S(=O)(=O)NC(=O)c2ccc3c(c2)N(C[C@@H]2CC[C@H]21)C[C@@]1(CCCc2cc(Cl)ccc21)CO3 [Example 145, (1S,3′R,6′R,7′S,8′E,11′S,12′R)-6-chloro-7′-methoxy-11′,12′-dimethyl-7′-(((3S,9aS)-3-methylhexahydropyrazino[2,1-c][1,4]oxazin-8(1H)-yl)methyl)-3,4-dihydro-2H,15′H-spiro[naphthalene-1,22′-[20]oxa[13]thia[1,14]diazatetracyclo [14.7.2.0~3,6~.0~19,24~]pentacosa[8,16,18,24]tetraen]-15′-one 13′,13′-dioxide] |  |  | IC50 [1, 3]: 0.124 nM; IC50 ([2]; Homo sapiens, OPM-2, 16 h, read-out: OPM-2 10% FBS IC50 IP, OPM-2 cells, 10% FBS, 16 h incubation): 113 nM |
| C[C@@H]1[C@@H](C)CCC[C@@]2(C[C@H]2C(=O)N2CCN3CCOC[C@H]3C2)[C@@H]2CC[C@H]2CN2C[C@@]3(CCCc4cc(Cl)ccc43)COc3ccc(cc32)C(=O)NS1(=O)=O [Example 100303, (1R,2R,3′R,6′R,11′S,12′R,22′S)-6″-chloro-2-((9aR)-hexahydropyrazino[2,1-c][1,4]oxazin-8(1H)-ylcarbonyl)-11′,12′-dimethyl-3″,4″-dihydro-2″H,15′H-dispiro[cyclopropane-1,7′-[20]oxa[13]thia[1,14]diazatetracyclo [14.7.2.0~3,6~.0~19,24~]pentacosa[16,18,24]triene-22′,1″-naphthalen]-15′-one 13′,13′-dioxide] | 3.64 nM |  | IC50 ([2]; read-out: OPM-2 10% FBS IC50 IP, OPM-2 cells, 10% FBS, 16 h, CellTiter-Glo): 7330 nM |
| C#C[C@@]1(OC)/C=C/C[C@H](C)[C@@H](C)S(=O)(=O)NC(=O)c2ccc3c(c2)N(C[C@@H]2CC[C@H]21)C[C@@]1(CCCc2cc(Cl)ccc21)CO3 [Example 100503, (1S,3′R,6′R,7′R,8′E,11′S,12′R)-6-chloro-7′-ethynyl-7′-methoxy-11′,12′-dimethyl-3,4-dihydro-2H,15′H-spiro[naphthalene-1,22′-[20]oxa[13]thia[1,14]diazatetracyclo [14.7.2.0~3,6~.0~19,24~]pentacosa[8,16,18,24]tetraen]-15′-one 13′,13′-dioxide] | 0.493 nM | 706 nM |  |
| CO[C@@]1(CN2CCN3CCN(C)C[C@@H]3C2)/C=C/C[C@H](C)[C@@H](C)S(=O)(=O)NC(=O)c2ccc3c(c2)N(C[C@@H]2CC[C@H]21)C[C@@]1(CCCc2cc(Cl)ccc21)CO3 [Example 210] |  |  | IC50 [1, 3]: 0.138 nM; IC50 ([2]; read-out: OPM-2 10% FBS IC50 IP, OPM-2 cells, 10% FBS, 16 h incubation): 185 nM |
| CO[C@]1(CC(=O)C(C)C)/C=C/C[C@H](C)[C@@H](C)S(=O)(=O)NC(=O)c2ccc3c(c2)N(C[C@@H]2CC[C@H]21)C[C@@]1(CCCc2cc(Cl)ccc21)CO3 [Example 100363, (1S,3′R,6′R,7′R,8′E,11′S,12′R)-6-chloro-7′-methoxy-11′,12′-dimethyl-7′-(3-methyl-2-oxobutyl)-3,4-dihydro-2H,15′H-spiro[naphthalene-1,22′-[20]oxa[13]thia[1,14]diazatetracyclo [14.7.2.0~3,6~.0~19,24~]pentacosa[8,16,18,24]tetraen]-15′-one 13′,13′-dioxide] |  | 3810 nM | IC50 [1]: 1.38 nM |
| C[C@@H]1[C@@H](C)CCC[C@](CO)(NC(=O)c2ccccc2)[C@@H]2CC[C@H]2CN2C[C@@]3(CCCc4cc(Cl)ccc43)COc3ccc(cc32)C(=O)NS1(=O)=O [Example 100256, N-((1S,3′R,6′R,7′S,11′S,12′R)-6-chloro-7′-(hydroxymethyl)-11′,12′-dimethyl-13′,13′-dioxido-15′-oxo-3,4-dihydro-2H-spiro[naphthalene-1,22′-[20]oxa[13]thia[1,14]diazatetracyclo [14.7.2.0~3,6~.0~19,24~]pentacosa[16,18,24]trien]-7′-yl)benzamide] | 5.04 nM | 1200 nM |  |
| C[C@@H]1[C@@H](C)CCC[C@](C)(CO)[C@@H]2CC[C@H]2CN2C[C@@]3(CCCc4cc(Cl)ccc43)COc3ccc(cc32)C(=O)NS1(=O)=O [Example 100301, (1S,3′R,6′R,7′S,11′S,12′R)-6-chloro-7′-(hydroxymethyl)-7′,11′,12′-trimethyl-3,4-dihydro-2H,15′H-spiro[naphthalene-1,22′-[20]oxa[13]thia[1,14]diazatetracyclo [14.7.2.0~3,6~.0~19,24~]pentacosa[16,18,24]trien]-15′-one 13′,13′-dioxide] | 1.31 nM | 1930 nM |  |
